In US20130196865A1, “METHOD FOR SELECTING AN IPS CELL” (THE GENERAL HOSPITAL CORPORATION, priority 2010, published 2013):

Experiments:
[1] = tested on: Dlk1-Dio3 locus (IG-DMR) methylation in iPSCs; assay: Derivation of iPS cells in the presence of ascorbic acid, DNA methylation at the Dlk1-Dio3 locus; format: cell-based, mouse
Description: These are 1) repression of an enzyme called Dnmt3a or 2) addition of ascorbic acid (Vitamin C) to do cell culture media during reprogramming (FIG. 15).
MEFs with a doxycycline-inducible polycistronic reprogramming cassette in their genome (Stadtfeld, M. et al. A reprogrammable mouse strain from gene-targeted embryonic stem cells. Nature methods 7(1):53-5) were reprogrammed into iPS cells by culture in either doxycycline-containing ESC media or doxycycline-containing ESC media with 50 ng/μl ascorbic acid (Sigma A4544). Doxycline was withdrawn after 10-14 days of culture and emerging iPS cell colonies picked and expanded in regular ESC culture media (without doxycycline, without ascorbic acid). Pluripotency of established iPS cell clones was confirmed by marker gene expression and blastocyst injections.
Genomic DNA was isolated using the DNeasy Blood and Tissue Kit (Qiagen) and bisulfite converted using the EpiTect Bisulfite Kit (Qiagen) with 100-1000 ng input. Converted DNA was used for PCR to amplify the regulatory IG-DMR region and PCR products were sequenced using the Pyrosequencing PSQ96 HS System (Biotage AB) (Stadtfeld, M. et al. Aberrant silencing of imprinted genes on chromosome 12qF1 in mouse induced pluripotent stem cells).

[2] = tested on: Gtl2^off and Gtl2^on iPSCs, ESCs; assay: Retinoic acid in vitro differentiation of iPSCs and ESCs, qPCR; format: cell-based, mouse; conditions: for Meg3/Gtl2 and Rian expression during differentiation: RA 5 days
Description: To assess if silencing of Meg3/Gtl2 might be resolved during differentiation, Gtl2^off and Gtl2^on iPSCs as well as ESCs were exposed to the differentiation-stimulating agent retinoic acid (RA) for 5 days. […] The expression of imprinted genes outside of chromosome 12qF1 was not affected (FIG. 3f, bottom, and FIG. 10)
(§1) cDNA was produced with the First Strand cDNA Synthesis Kit (Roche) using 1 μg of total RNA input. Real-time quantitative PCR reactions were set up in triplicate using 5 μl of cDNA (1:100 dilution) with the Brilliant II SYBR Green QPCR Master Mix (Stratagene) and run on a Mx3000P QPCR System (Stratagene).

[3] = tested on: Meg3/Gtl2 expression in Gtl2^off iPSC clone #45 subclones; assay: Valproic acid treatment of Gtl2off iPSC subclones, Meg3/Gtl2 expression by qPCR; format: cell-based, mouse
Description: as §1

[4] = tested on: chromatin marks at the Gtl2 promoter; assay: Chromatin immunoprecipitation at the Meg3/Gtl2 locus after VA rescue; format: cell-based, mouse; conditions: VA-rescued clone
Description: 20 million iPSCs, ESCs or MEFs were fixed with 1% formaldehyde for 10 minutes at room temperature (RT) and then lysed in 1 ml lysis buffer (50 mM Tris-HCl, pH 8.0, 10 mM EDTA, 1% SDS, protease inhibitors) for 20 minutes on ice. The lysate was split into three tubes and sonicated using Bioruptor for five times five minutes at high intensity, 30 sec on-30 sec off. After 10 minutes centrifugation, the supernatant was precleared for 1 hour at 4° C. with agarose beads preblocked with BSA (1 mg BSA for 10 ml beads) in IP Buffer (50 mMM Tris-HCl, pH8, 150 mM NaCl, 2 mM EDTA, 1% NP-40, 0.5% Sodium Deoxycholate, 0.1% SDS, protease inhibitors). […] of precleared chromatin per reaction diluted in 1 ml IP Buffer in presence of 2 ug antibody were used for each immunoprecipitation reaction according to manufacturer's protocol. The antibodies used for this study were: anti-aCH3 (06-5 99 Millipore), anti-acH4 (06-866, Millipore), anti-dimethyl K4 of H3 (07-030, Millipore), anti-trimethyl K27 of H3 (ab6002, Abcam) and normal rabbit IgG (Millipore). The precipitate was purified using Qiaquick PCR purification kit and was analyzed by qPCR using Brilliant II SYBR Green qPCR Master Mix (600828, Agilent Technologies) using the sequence specific primer sets. Gtl2: 5′-[…]-3′ (FWD) and 5′-[…]3′ (REV) and Pou5f1: 5′-[…]-3′ (FWD) and 5′-[…]-3′ (REV).

[5] = tested on: development of all-iPSC embryos/pups; assay: 4n blastocyst injection of VA-rescued iPSC clone; format: in vivo, mouse
Description: 2n and 4n blastocyst injections were performed as described before (Eggan, K et al., PNAS USA 98(11):6209 (2001)). Briefly, female BDF1 mice were super-ovulated by intraperitoneal injection of PMS and hCG and mated to BDF1 stud males. Zygotes were isolated from females with a vaginal plug 24 hour after hCG injection. Zygotes for 2n injections were in vitro cultured for 3 days in vitro in KSOM media, blastocysts were identified, injected with ESCs or iPSCs and transferred into pseudopregnant recipient females. For 4n injections, zygotes were cultured overnight until they reached the 2-cell stage, at which point they were electrofused.

`O=C1O[C@H]([C@@H](O)CO)C(O)=C1O` [ascorbic acid] was tested, and the “abnormal methylation in iPSCs” value ([1]; FIG. 15b) was “prevents abnormal methylation” and the “frequency of "normal iPSCs"” value ([1]; ascorbic acid added to culture media during reprogramming) was “dramatically increased”.

For `CC1=C(/C=C/C(C)=C/C=C/C(C)=C/C(=O)O)C(C)(C)CCC1` [retinoic acid, all-trans retinoic acid], the “Meg3/Gtl2 and Rian expression during differentiation” value ([2]; Gtl2^off iPSCs) was “stable silencing”, the “Dlk1 expression upon differentiation” value ([2]; Gtl2^off iPSCs, RA treated) was “express high levels” and the “Meg3/Gtl2 and Rian expression during differentiation” value ([2]; Gtl2^on iPSCs and ESCs) was “readily upregulated”. For the same molecule, the Pou5f1 expression ([2]; all RA-treated clones, 5 days) was “downregulation of Pou5f1”.

`CCCC(CCC)C(=O)O` [valproic acid] was tested, and the “subclones exhibiting increased Meg3/Gtl2 expression” value ([3]; Gtl2^off iPSC subclones treated with VA) was “two out of 21”, the “Meg3/Gtl2 expression level of rescued clone” value ([3]; one VA-treated iPSC clone, versus ESCs) was “comparable to ESCs” and the “activation-associated chromatin marks at the Meg3/Gtl2 locus” value [4] was “re-appearance of H3K4 methylation and H3 acetylation”. For the same molecule, the “full-term development after 4n blastocyst injection” value ([5]; VA-rescued clone, not seen with parental iPSCs) was “supported the development of several full-term pups” and the “phenotype of full-term pups” value ([5]; pups from VA-rescued clone) was “severely overgrown, however, and hence non-viable”.
